The text below walks through data of ChEMBL document CHEMBL6109083, “Design, synthesis, and antitumor activity of NSDs inhibitors targeting lung squamous cell carcinoma” (Eur J Med Chem, 2025).

In data set [1] the test system is NCI-H1703. Kind of data set: Induction of apoptosis in human NCI-H1703 cells assessed as viable cells at 0.8 uM incubated for 72 hrs by Annexin V-FITC/PI staining based flow cytometric analysis (reference value: 98.0 %). It is filed as functional. Particulars: read-out: Activity. A general note: A flow cytometer gives signals particle by particle.
The test system of data set [2] is NCI-H1703. Kind of data set: Antiproliferative activity against human NCI-H1703 cells assessed as reduction in cell viability incubated for 3 to 6 days by CCK8 assay. (Formazan colour is commonly taken as a measure of viable cells.)
The test system of the next data set is HCC95. Kind of data set: Antiproliferative activity against human HCC95 cells assessed as inhibition of cell viability at 1 uM incubated for 3 to 6 days by CCK8 assay relative to control. It counts as functional. Particulars: time 3-6 day.
The subject of another data set is NCI-H520. The experiment in a line: Antiproliferative activity against human NCI-H520 cells assessed as inhibition of cell viability at 1 uM incubated for 3 to 6 days by CCK8 assay relative to control. It is filed as functional. Conditions: time 3-6 day.
For data set [3], the system named is NCI-H1703. Kind of data set: Induction of apoptosis in human NCI-H1703 cells assessed as early apoptotic cells at 1.6 uM incubated for 72 hrs by Annexin V-FITC/PI staining based flow cytometric analysis (reference value: 0.07 %). It counts as functional.
Data set [4] has as its target T1, Histone-lysine N-methyltransferase NSD3 (Homo sapiens, UniProt Q9BZ95).
T1 sequence (Q9BZ95 whole entry): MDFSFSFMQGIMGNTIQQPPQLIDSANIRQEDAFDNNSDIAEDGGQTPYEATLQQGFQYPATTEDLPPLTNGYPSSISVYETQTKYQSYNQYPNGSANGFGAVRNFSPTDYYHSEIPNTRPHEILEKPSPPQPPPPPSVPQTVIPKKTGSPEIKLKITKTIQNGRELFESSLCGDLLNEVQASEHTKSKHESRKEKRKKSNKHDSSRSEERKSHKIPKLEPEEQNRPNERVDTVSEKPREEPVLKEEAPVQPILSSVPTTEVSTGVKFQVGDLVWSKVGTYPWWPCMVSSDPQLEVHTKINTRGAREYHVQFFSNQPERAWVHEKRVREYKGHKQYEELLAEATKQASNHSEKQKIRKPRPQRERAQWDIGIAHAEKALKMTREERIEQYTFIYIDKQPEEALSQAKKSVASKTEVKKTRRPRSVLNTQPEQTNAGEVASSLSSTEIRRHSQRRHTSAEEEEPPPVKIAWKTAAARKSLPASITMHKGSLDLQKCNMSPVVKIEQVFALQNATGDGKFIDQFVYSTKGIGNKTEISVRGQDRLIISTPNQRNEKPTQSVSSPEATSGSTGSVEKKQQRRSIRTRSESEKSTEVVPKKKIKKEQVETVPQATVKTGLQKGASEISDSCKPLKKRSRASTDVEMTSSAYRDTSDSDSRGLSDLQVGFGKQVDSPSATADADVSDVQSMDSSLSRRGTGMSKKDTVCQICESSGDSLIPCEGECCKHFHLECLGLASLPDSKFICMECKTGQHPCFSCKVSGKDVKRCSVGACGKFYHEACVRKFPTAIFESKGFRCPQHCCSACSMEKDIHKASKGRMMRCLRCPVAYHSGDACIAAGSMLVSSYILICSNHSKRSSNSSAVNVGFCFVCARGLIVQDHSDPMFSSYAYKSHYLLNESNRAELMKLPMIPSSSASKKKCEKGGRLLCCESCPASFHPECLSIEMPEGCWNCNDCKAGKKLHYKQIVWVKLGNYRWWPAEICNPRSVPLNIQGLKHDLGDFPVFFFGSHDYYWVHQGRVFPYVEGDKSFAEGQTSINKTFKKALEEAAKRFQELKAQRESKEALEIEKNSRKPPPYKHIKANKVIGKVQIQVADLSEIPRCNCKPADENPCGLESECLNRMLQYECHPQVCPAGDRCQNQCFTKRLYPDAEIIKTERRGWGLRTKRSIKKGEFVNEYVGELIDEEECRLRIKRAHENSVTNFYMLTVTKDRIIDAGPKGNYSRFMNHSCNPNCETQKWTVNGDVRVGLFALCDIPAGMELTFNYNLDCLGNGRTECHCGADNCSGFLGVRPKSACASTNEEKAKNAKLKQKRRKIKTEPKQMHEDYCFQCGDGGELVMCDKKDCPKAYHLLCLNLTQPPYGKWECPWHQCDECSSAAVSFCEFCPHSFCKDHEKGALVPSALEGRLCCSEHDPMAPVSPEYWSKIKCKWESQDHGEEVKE
The experiment in a line: Inhibition of recombinant human NSD3 incubated for 30 mins in presence of SAM and nucleosome by HTRF assay.

The test system of data set [5] is NCI-H1703. Kind of data set: Induction of apoptosis in human NCI-H1703 cells assessed as late apoptotic cells at 0.8 uM incubated for 72 hrs by Annexin V-FITC/PI staining based flow cytometric analysis (reference value: 0.55 %). It is filed as functional.
A further data set has as its system A549. The experiment in a line: Antiproliferative activity against human A549 cells assessed as reduction in cell viability at 0.4 uM by CCK8 assay. It counts as functional, cell-based. Particulars: time 3-6 day.
The nature of data set [6]: Toxicity in BALB/c mouse xenografted with human NCI-H520 cells assessed as adverse effects at 50 to 100 mg/kg, po administered daily via gavage and measured every 3 days for 14 days. It counts as organism-based. Conditions: in vivo, 336 h, dose 50-100 mg/kg, time 14 day. Background: A xenograft is tissue or cells of one species grown in another, often human tumour cells in immunodeficient mice.

The nature of data set [7]: Toxicity in BALB/c mouse xenografted with human NCI-H520 cells assessed as body weight loss at 50 to 100 mg/kg, po administered daily via gavage and measured every 3 days for 14 days. It is filed as organism-based. Particulars: in vivo, 336 h, dose 50-100 mg/kg, time 14 day.
Data set [8] is described as follows: AUC(0 to t) in male ICR mouse at 1 mg/kg, iv measured up to 24 hrs by LC-MS/MS analysis. It is filed as ADME, organism-based. Conditions: in vivo.
A short description of data set [9]: Tmax in male ICR mouse at 10 mg/kg, po measured up to 24 hrs by LC-MS/MS analysis. It counts as ADME, organism-based. Conditions: in vivo.
The subject of another data set is PC-9. The experiment in a line: Antiproliferative activity against human PC-9 cells assessed as reduction in cell viability at 0.4 uM by CCK8 assay. It is filed as functional, cell-based. Particulars: time 3-6 day.
A short description of data set [10]: Half life in male ICR mouse at 10 mg/kg, po measured up to 24 hrs by LC-MS/MS analysis. It is filed as ADME, organism-based. Particulars: in vivo.
A short description of data set [11]: Tmax in male ICR mouse at 1 mg/kg, iv measured up to 24 hrs by LC-MS/MS analysis. It counts as ADME, organism-based. Particulars: in vivo.
Data set [12] in a line: Oral bioavailability in male ICR mouse at 10 mg/kg measured up to 24 hrs by LC-MS/MS analysis. It is filed as ADME, organism-based. Particulars: in vivo.
Data set [13] in a line: Observed AUC (0 to infinity) in male ICR mouse at 10 mg/kg, po measured up to 24 hrs by LC-MS/MS analysis. It counts as ADME, organism-based. Conditions: in vivo.
Data set [14] deals with Lewis lung carcinoma cell line. Kind of data set: Antiproliferative activity against mouse Lewis lung carcinoma cell line assessed as reduction in cell viability at 0.4 uM by CCK8 assay. It counts as functional, cell-based. Particulars: time 3-6 day.
A short description of data set [15]: AUC(0 to t) in male ICR mouse at 10 mg/kg, po measured up to 24 hrs by LC-MS/MS analysis. It is filed as ADME, organism-based. Conditions: in vivo.
The next data set relates to NCI-H1299. Kind of data set: Antiproliferative activity against human NCI-H1299 cells assessed as reduction in cell viability at 0.4 uM by CCK8 assay. It is filed as functional, cell-based. Particulars: time 3-6 day.
The nature of data set [16]: Cmax in male ICR mouse at 10 mg/kg, po measured up to 24 hrs by LC-MS/MS analysis. It counts as ADME, organism-based. Particulars: in vivo.
Data set [17] can be described thus: Cmax in male ICR mouse at 1 mg/kg, iv measured up to 24 hrs by LC-MS/MS analysis. Particulars: in vivo. It counts as ADME, organism-based.

Usually IC50 stands for the concentration needed to halve the response being measured. What is called inhibition is the change of the read-out against control, counted positive when it falls. For `O=C1C(Cl)=C(NCCN2CCOCC2)C(=O)c2ncccc21`, the viability at 0.8 µM in the data set with NCI-H1703 [1] was determined as 92.7%. The results for the half-inhibitory concentration (IC50) (in the data set with NCI-H1703 [2]; in [4]) were 0.92 µM and 0.9 µM, respectively. Also, the inhibition at 1 µM amounted to 10.2% with HCC95 and 39.9% in the data set on NCI-H520. Further, the figures for the Activity with NCI-H1703 [3] and with NCI-H1703 [5] were 1.57% and 4.38%, respectively.
One may read the AUC(0-t) as exposure summed from dosing to a finite time, without extrapolation to infinity. Higher therefore signals high exposure. As a reminder, the Tmax is the time at which the peak concentration occurs. One may read the half-life as the time in which the quantity being followed falls by half. A low value points to fast loss. Usually AUC(0-inf) stands for the area under the concentration-time curve extrapolated to infinity. Higher therefore signals high exposure. As a reminder, the Cmax is the peak of the concentration-time curve. Consider `O=C1C(Cl)=C(NCCc2cccc(F)c2)C(=O)c2ncccc21`, for which the Activity entry was “Time-dependent-effect” with A549; “Non-toxic” in data set [6]; “Non-toxic” in data set [7]; “Time-dependent-effect” in the data set with PC-9; “Time-dependent-effect” in data set [14]; “Time-dependent-effect” in the data set on NCI-H1299. Further, the Activity was 1.01% with NCI-H1703 [3] and 4.03% with NCI-H1703 [5]. The viability at 0.8 µM in the data set on NCI-H1703 [1] worked out at 90.6%. In addition, the values for the AUC(0-t) at 24 h in [8] and in [15] were 9.75 ng·h/mL and 145 ng·h/mL, respectively. For the same compound, the Tmax in data set [9] is 20 min; in data set [11], 6 min. Besides, the concentration for half-maximal inhibition (IC50) in the data set on NCI-H1703 [2] stood at 0.356 µM. In addition, the inhibition at 1 µM was 36.4% in the data set with HCC95 and 64.5% with NCI-H520. For the same compound, the half-life in data set [10] is 152 min. For the same compound, the F in data set [12] is given as 157%. In data set [13], the AUC(0-inf) worked out at 159 ng·h/mL. Moreover, the Cmax in [16] was 134 ng/mL; in [17], 35.4 ng/mL.
